Consider one molecule from patent publication US6998470B1, “Process for large-scale isolation and purification of hypothalamic inhibitory factor” (Bion, Inc., priority 1997, dated 2006).

Assay [1] has as its target T1, monoclonal antibody 26-10 (Mus musculus, UniProt P01631).
T1 construct: fused on or other part: Heavy chain of mAb 26-10 (A/J mouse), which forms most of the digoxin/ouabain pocket
Put plainly: 125I competition plate assay using goat-anti-mouse IgG Fab to bind the antibodies. The arrangement: species or system mice. The note with it: read-out: relative affinity (IC50); binding to anti-digoxin mAb 26-10. From the text: (§1) Several available anti-digoxin antibodies were studied to determine relative affinity for ouabain.
Monoclonal antidigoxin antibody 26-10 was obtained from A/J mice immunized with a digoxin-human serum albumin (Dig-HSA) conjugate and spleen cells were fused with the non-secreting murine myeloma Sp2/0 cell line (Mudgett-Hunter, M., et al. J. Immunol., 129:1165–1172 (1982)). Hybridoma cells identified by radioimmunoassay (RIA) as secreting anti-digoxin antibody were cloned and grown in tissue culture and amplified in the ascites form in mice. Digoxin specific hybridoma proteins were purified from ascites by a variety of chromatographic methods, including ion-exchange chromatography on DEAE cellulose and affinity chromatography on Digoxin-BSA-Sepharose or ouabain-amine Sepharose.

Assay [2] deals with Na+-K+-ATPase pump activity in human erythrocytes. The assay is described as follows: standard human erythrocyte 86Rb+ uptake assay. The class given is cell-based. The conditions noted are these: RBC 86Rb+ uptake assay.
Description: As defined herein, purified HIF refers to HIF which is substantially free of or isolated from other tissue or fluid protein components and contaminants. In addition, the purified HIF of the present invention has at least 40% activity recovery. Preferably, the purified HIF has about 50–75% activity recovery, more preferably the purified HIF has about 75–90% activity recovery and most preferably, the purified HIF has about 90–95% activity recovery. As defined herein, “activity recovery” of HIF is the activity of HIF as measured indirectly by, for example a biological assay such as specific inhibition of Na^+-K^+-ATPase pump activity in human erythrocytes, or as measured directly, for example, by UV absorbance following HPLC chromatography.
as §1

The target of the next assay is purified Na, K-ATPase. The conditions noted are these: Haupert et al. 1984; read-out: affinity constant for binding to purified Na, K-ATPase; cited from earlier work.

T1 sequence (P01631 whole entry, the tested form may be a part): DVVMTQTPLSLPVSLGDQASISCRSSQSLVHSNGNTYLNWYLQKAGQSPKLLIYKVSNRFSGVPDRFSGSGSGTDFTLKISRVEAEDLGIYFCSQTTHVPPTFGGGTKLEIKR

Consider `C[C@@H]1O[C@@H](O[C@H]2C[C@@H](O)[C@]3(CO)[C@H]4[C@H](O)C[C@]5(C)[C@@H](C6=CC(=O)OC6)CC[C@]5(O)[C@@H]4CC[C@]3(O)C2)[C@H](O)[C@H](O)[C@H]1O` [ouabain], for which the IC50 (usually the concentration that gives 50% inhibition) in assay [1] was 300 nM. Also, the “amount equal to 1 U (1 U=50% inhibition under standard conditions)” value in assay [2] is given as “approximately 0.75 pmol”. In addition, at purified Na, K-ATPase, the Kd was ~1 nM.
